Consider 35 molecules from patent EP4800013A1, “PARG INHIBITOR” (Shanghai Qilu Pharmaceutical Research and Development …, priority 2023, dated 2025).

pIC50: −log10 of the molar value.

The target in the first assay is T1, PARG (Homo sapiens, UniProt Q86W56).
T1 construct: made in house
T1 sequence (Q86W56 whole entry): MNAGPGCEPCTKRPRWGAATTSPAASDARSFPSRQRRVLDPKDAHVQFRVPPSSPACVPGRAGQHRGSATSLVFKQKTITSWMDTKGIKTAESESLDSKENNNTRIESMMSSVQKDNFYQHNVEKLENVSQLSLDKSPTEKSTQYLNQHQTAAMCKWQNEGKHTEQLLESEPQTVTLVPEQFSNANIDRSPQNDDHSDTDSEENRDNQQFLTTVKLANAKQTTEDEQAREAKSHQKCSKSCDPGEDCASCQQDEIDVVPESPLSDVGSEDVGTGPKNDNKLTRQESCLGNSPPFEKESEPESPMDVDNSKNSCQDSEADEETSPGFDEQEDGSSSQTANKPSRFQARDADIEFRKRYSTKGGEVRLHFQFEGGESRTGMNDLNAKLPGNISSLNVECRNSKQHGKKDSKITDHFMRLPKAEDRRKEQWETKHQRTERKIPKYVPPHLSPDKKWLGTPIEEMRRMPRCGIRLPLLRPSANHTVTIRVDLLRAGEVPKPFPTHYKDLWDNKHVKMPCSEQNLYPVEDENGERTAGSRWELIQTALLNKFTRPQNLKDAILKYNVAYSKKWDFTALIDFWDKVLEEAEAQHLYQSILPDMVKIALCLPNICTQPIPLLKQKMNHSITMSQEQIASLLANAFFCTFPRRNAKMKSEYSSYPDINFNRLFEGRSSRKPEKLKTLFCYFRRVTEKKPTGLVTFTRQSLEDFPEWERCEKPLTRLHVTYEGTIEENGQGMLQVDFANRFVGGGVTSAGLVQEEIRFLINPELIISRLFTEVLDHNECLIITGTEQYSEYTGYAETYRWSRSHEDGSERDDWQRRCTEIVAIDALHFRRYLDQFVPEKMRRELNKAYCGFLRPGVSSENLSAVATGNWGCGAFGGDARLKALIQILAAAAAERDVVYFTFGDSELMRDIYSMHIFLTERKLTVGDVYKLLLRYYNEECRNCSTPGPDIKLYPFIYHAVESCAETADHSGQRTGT
As to the kind of experiment: Enzymatic inhibitory activity against PARG, HTRF assay. In kind it is biochemical. The conditions noted are these: HTRF; PARylated PARP1 protein as substrate; 60 minutes at room temperature; read-out: IC50 against PARG enzyme. On the procedure: In this experiment, the enzymatic inhibitory activity of the compounds of the present disclosure against PARG was determined using an HTRF (homogeneous time-resolved fluorescence) assay.
HTRF assay reagents were purchased from PerkinElmer (Cat. Nos. 61HISTLB and 610SAXLB). The purified protein was prepared in-house.
PARG enzyme reaction buffer: 50 mM Tris (pH 7.4), 0.1 mg/mL BSA, 3 mM EDTA, 0.4 mM EGTA, 1 mM DTT, 50 mM KCl, and 0.01% Tween 20.
• 1) Using an ultra-micro pipette, the compounds of the present disclosure were serially diluted (starting at 10 µM with 3- to 5-fold serial dilutions) and added to a 384-well reaction plate, with each concentration tested in duplicate wells. Control group 1 was added with 10 µM control compound (100% inhibition group). Control group 2 was added with DMSO (0% inhibition group). After compound addition, the 384-well plate was centrifuged at 1000 rpm for 1 minute. • 2) 2.5 µL of PARG protein was added to each well and incubated with the compounds of the present disclosure at room temperature for 15 minutes, followed by centrifugation at 1000 rpm for 1 minute. • 3) 2.5 µL of PARylated PARP1 protein was added to each well and incubated at room temperature for 60 minutes, followed by centrifugation at 1000 rpm for 1 minute. • 4) 5 µL of His-Tb & SA-XL665 HTRF assay reagents were added to each well and incubated at room temperature for 60 minutes, followed by centrifugation at 1000 rpm for 1 minute. • 5) […] were measured using a PHERAstar FSX microplate reader from BMG. • 6) Data analysis was performed using GraphPad Prism 8. The IC50 values of the compounds of the present disclosure were calculated as follows. […] The average value of duplicate wells in control group 2 (0% inhibition group) was set as the relative inhibition rate of 0%. The HTRF signal values were converted into relative inhibition rates. The IC50 values of the compounds were calculated by fitting the data to a four-parameter logistic model. Table 15: Enzymatic inhibitory activity of the compounds of the present disclosure against PARG
For orientation: TR-FRET usually uses a lanthanide donor and a delayed reading to cut background.
For `CC(C)S(=O)(=O)N1CCN(c2cc(S(=O)(=O)NC3(C#N)CC3)cc3c2nc(OC2CC2)n3-c2nnc(C(F)F)s2)CC1` [Compound 057P], the pIC50 (as a rule, −log10 of the IC50, conventionally taken in molar units) is 7.53.
Same read-out and setting: with `C=CCn1c(=O)n(-c2nnc(C(F)F)s2)c2cc(S(=O)(=O)NC3(C#N)CC3)cc(N3CCN(c4ncc[nH]4)CC3)c21` [Compound 067JD] the figure was 7.50.
Still for that read-out and setting: next, `C=CCn1c(=O)n(-c2nnc(C(F)F)s2)c2cc(S(=O)(=O)NC3(C#N)CC3)cc(N3CCN(C(=O)NC)CC3)c21` [Compound 067M]: 7.54; `C=CCn1c(=O)n(-c2nnc(C(F)F)s2)c2cc(S(=O)(=O)NC3(C#N)CC3)cc(N3CCN(C(=O)C(C)C)[C@H](C)C3)c21` [Compound 069D]: 7.63; `CC(C)C(=O)N1CCN(c2cc(S(=O)(=O)NC3(C#N)CC3)cc3c2n(CC#N)c(=O)n3-c2nnc(C(F)F)s2)CC1` [Compound 074J]: 7.97.
On the same count and under the same terms, with `C=CCn1c(=O)n(-c2nnc(C(F)F)s2)c2cc(S(=O)(=O)NC3(C#N)CC3)cc(N3CCN(S(=O)(=O)c4ccn(C)n4)CC3)c21` [Compound 075B] the figure was 7.45; with `C=CCn1c(=O)n(-c2nnc(C(F)F)s2)c2cc(S(=O)(=O)NC3(C#N)CC3)cc(N3CCN(C(=O)C(C)(C)NC(=O)OC)CC3)c21` [Compound 076A], 7.89; with `C=CCn1c(=O)n(-c2nnc(C(F)F)s2)c2cc(S(=O)(=O)NC3(C#N)CC3)cc(N3CCN(C(=O)C4(C)CCCN4)CC3)c21` (centres unmarked) [Compound 076B], 8.01.
Turning to `C=CCn1c(=O)n(-c2nnc(C(F)F)s2)c2cc(S(=O)(=O)NC3(C#N)CC3)cc(N3CCN(C(=O)C4CCCN4)CC3)c21` (centres unmarked) [Compound 076C], the pIC50 was 8.07.
Regarding `C=CCn1c(=O)n(-c2nnc(C(F)F)s2)c2cc(S(=O)(=O)NC3(C#N)CC3)cc(N3CCN(C(=O)C4CCCN4C)CC3)c21` (centres unmarked) [Compound 076D], the pIC50 is 7.83.
The same measure, in the same setting: next, `C=CCn1c(=O)n(-c2nnc(C(F)F)s2)c2cc(S(=O)(=O)NC3(C#N)CC3)cc(N3CCN(C(=O)[C@@H]4CCC5(CC5)N4)CC3)c21` [Compound 076F1]: 7.51.
The same measure, in the same setting: next, `C=CCn1c(=O)n(-c2nnc(C(F)F)s2)c2cc(S(=O)(=O)NC3(C#N)CC3)cc(N3CCN(C(=O)C4CCC(=O)N4)CC3)c21` (centres unmarked) [Compound 076G]: 8.05; `C[C@H]1CN(c2cc(S(=O)(=O)NC3(C#N)CC3)cc3c2nc(C2CCCO2)n3-c2nnc(C(F)F)s2)C[C@H](C)N1` (some centres unmarked) [Compound 077J]: 7.98; `C[C@H]1CN(c2cc(S(=O)(=O)NC3(C)COC3)cc3c2nc(C2CCCO2)n3-c2nnc(C(F)F)s2)C[C@H](C)N1` (some centres unmarked) [Compound 077K]: 7.89.
The same measure, in the same setting: next, `C[C@H]1CN(c2cc(S(=O)(=O)NC3(C)CC3)cc3c2nc(C2CNCCO2)n3-c2nnc(C(F)F)s2)C[C@H](C)N1` (some centres unmarked) [Compound 077Y]: 7.99; `C[C@H]1CN(c2cc(S(=O)(=O)NC3(C)CC3)cc3c2nc([C@@H]2CC4(CC4)CO2)n3-c2nnc(C(F)F)s2)C[C@H](C)N1` [Compound 079M2]: 8.72.
`C[C@H]1CN(c2cc(S(=O)(=O)NC3(C)CC3)cc3c2nc(C2CCOC2)n3-c2nnc(C(F)F)s2)C[C@H](C)N1` (some centres unmarked) [Compound 079N]: the pIC50 was 8.21.
Same read-out and setting: next, `C[C@H]1CN(c2cc(S(=O)(=O)NC3(C)CC3)cc3c2cc(N=S(C)(C)=O)n3-c2nnc(C(F)F)s2)C[C@H](C)N1` [Compound 082E]: 8.26.
In the case of `CN(C)C(=O)N1CCN(c2cc(S(=O)(=O)NC3(C#N)CC3)cc3c2n(CC(F)(F)F)c(=O)n3-c2nnc(C(F)F)s2)CC1` [Compound A044], the pIC50 was 8.15.
Still for that read-out and setting: next, `C=CCn1c(=O)n(-c2nnc(C(F)F)s2)c2cc(S(=O)(=O)NC3(C#N)CC3)cc(N3CCN(C(=O)NC4CC4)CC3)c21` [Compound A054]: 7.41; `CC(C)C(=O)N1CCN(c2cc(S(=O)(=O)NC3(C#N)CC3)cc3c2n(C2CC2)c(=O)n3-c2nnc(C(F)F)s2)CC1` [Compound A055]: 7.92.
Same read-out and setting: with `CC(C)S(=O)(=O)N1CCN(c2cc(S(=O)(=O)NC3(C#N)CC3)cc3c2n(C2CC2)c(=O)n3-c2nnc(C(F)F)s2)CC1` [Compound A056] the figure was 8.28; with `C[C@H]1CN(c2cc(S(=O)(=O)NC3(C)CC3)cc3c2ncn3-c2nnc(C(F)F)s2)C[C@H](C)N1` [Compound B004], 7.81.
Still for that read-out and setting: with `C[C@H]1CN(c2cc(S(=O)(=O)NC3(C)CC3)cc3c2ncn3-c2nnc(C(F)F)s2)C[C@H](C)N1C(=O)N(C)C` [Compound B005] the figure was 7.94.
For the molecule `CC(C)(O)C(=O)N1CCN(c2cc(S(=O)(=O)NC3(C#N)CC3)cc3c2ncn3-c2nnc(C(F)F)s2)CC1` [Compound B015], the pIC50 is 7.80.
`CN(C)C(=O)N1CC=C(c2cc(S(=O)(=O)NC3(C#N)CC3)cc3c2ncn3-c2nnc(C(F)F)s2)CC1` [Compound B022]: the pIC50 was 7.73.
The same measure, in the same setting: with `CC(C)C(=O)N1CC=C(c2cc(S(=O)(=O)NC3(C#N)CC3)cc3c2ncn3-c2nnc(C(F)F)s2)CC1` [Compound B023] the figure was 7.78; with `C[C@H]1CN(c2cc(S(=O)(=O)NC3(C)CC3)cc3c2n2ccnc2n3-c2nnc(C(F)F)s2)C[C@H](C)N1` [Compound B024], 7.78; with `C[C@H]1CN(c2cc(S(=O)(=O)NC3(C)CC3)cc3c2c2nccnc2n3-c2nnc(C(F)F)s2)C[C@H](C)N1` [Compound H001], 8.96.

In the next assay the test system is KURAMOCHI cells. As to the kind of experiment: Inhibition of proliferation of KURAMOCHI cells (CellTiter-Glo, intracellular ATP). Type of assay: cell-based. The following applies: 168 h, incubated for 7 days, read-out: IC50 against KURAMOCHI cells. On the procedure: In this experiment, the inhibitory effect of the compounds of the present disclosure on the proliferation of the cancer cell line KURAMOCHI was evaluated by measuring intracellular ATP levels using a bioluminescent assay, and the half maximal inhibitory concentration (IC50) was determined.
RPMI 1640 medium (Cat. No. 11875-093), fetal bovine serum (10099-141), and 100× Pen/Strep (15070-063) were purchased from GIBCO. CellTiter-Glo Luminescent Cell Viability Assay reagent (Cat. No. G7573) was purchased from Promega.
• 1) Day 1: KURAMOCHI cells were counted using a cell counter and seeded into a 96-well culture plate at a density of 4000 cells per well in 100 µL medium. The plate was incubated overnight in an incubator (37°C, 5% CO2). • 2) Day 2: Using a D300e digital dispenser (TECAN), 500 nL of serially diluted test compounds of the present disclosure (starting at 10 µM, a total of 9 concentrations, 1:4 dilution) were added to the cells in the culture plate. The final concentration of DMSO was 0.5%. The cell culture plate was incubated for 7 days in a cell culture incubator (37°C, 5% CO2). Control group 1 received only medium and DMSO (100% inhibition group). Control group 2 received only DMSO (0% inhibition group). The final concentration of DMSO in both groups was 0.5%. • 3) Day 9: 100 µL of CellTiter-Glo reagent was added to each well. The plate was shaken at 500 rpm for 2 minutes, centrifuged at 1000 rpm for 1 minute, and then incubated at room temperature in the dark for 10 minutes to stabilize the luminescence signal. • 4) Luminescence signals were measured using an EnVision microplate reader (PerkinElmer). • 5) Data analysis was performed using GraphPad Prism 8. The IC50 values of the compounds of the present disclosure were calculated as follows. The CTG signal values were analyzed. The average inhibition rate of control group 1 (100% inhibition group) was set as the relative inhibition rate of 100%. The average inhibition rate of control group 2 (0% inhibition group) was set as the relative inhibition rate of 0%. The CTG signal values were converted into relative inhibition rates. The inhibition percentage (inhibition%) for each concentration of the compounds of the present disclosure was calculated according to the following formula: Inhibition% = (b−x)/(b−a)*100%; [formula] • a = CTG value (highest concentration), b = CTG value (blank well), x = CTG value (test well). • IC50 was calculated using GraphPad Prism 8. • (1) The concentration and inhibition rate corresponding to each well were recorded. Statistical calculation was performed using Log10 (compound concentration). • (2) The data were input into GraphPad Prism 8 and Analysis was selected. • (3) Nonlinear regression (curve fit) was selected. • (4) Log (inhibitor) vs. response - Variable slope was selected. • (5) The calculation formula was selected, and the calculation was performed according to the following formula: Y = Bottom + (Top - Bottom) / (1 + 10 ^ ((LogIC50 - X) * HillSlope)); X: log of dose or concentration; Y: response; Top and Bottom: maximum and minimum response. • (6) The IC50 values were calculated by fitting the data. Table 16: Inhibitory effect of the compounds of the present disclosure on the proliferation of KURAMOCHI cells
For orientation: In ATP-based viability assays light output follows the ATP content of the culture.
As to `C[C@H]1CN(c2cc(S(=O)(=O)NC3(C)CC3)cc3c(-c4nnc(C(F)F)s4)noc23)C[C@H](C)N1` [Compound 021B], the pIC50 is 7.96.
On the same count and under the same terms, next, `C=CCn1c(=O)n(-c2nnc(C(F)F)s2)c2cc(S(=O)(=O)NC3(C#N)CC3)cc(N3CC4CC3CN4S(=O)(=O)C(C)C)c21` (centres unmarked) [Compound 069E]: 7.26; `C=CCn1c(=O)n(-c2nnc(C(F)F)s2)c2cc(S(=O)(=O)NC3(C#N)CC3)cc(N3CCN(C(=O)C4CC(F)(F)C4)CC3)c21` [Compound 072D]: 7.28; `C[C@H]1CN(c2cc(S(=O)(=O)NC3(C)CC3)cc3c2nc(-c2nccs2)n3-c2nnc(C(F)F)s2)C[C@H](C)N1` [Compound 077S]: 7.24.
The same measure, in the same setting: with `C=CC1CN(c2cc(S(=O)(=O)NC3(C)CC3)cc3c2cnn3-c2nnc(C(F)F)s2)C[C@H](C)N1` (some centres unmarked) [Compound 078A] the figure was 7.52; with `C#CC1CN(c2cc(S(=O)(=O)NC3(C)CC3)cc3c2cnn3-c2nnc(C(F)F)s2)C[C@H](C)N1` (some centres unmarked) [Compound 078B], 7.47.
